Here are results for four compounds from BindingDB's records for doi:10.1021/jm00164a044 (Niddk, 1990).

pKi: −log10 of the molar value.

A short description of the test: Muscarinic acetylcholine receptor binding affinity was determined using [3H]NMS for NG108-15 neuroblastoma cells.
The pKi is the negative decadic logarithm of the Ki, by convention in mol/L. A high value points to a low Ki. Consider `CC(=O)N(C)CC#CCN1CCCC1`, for which the negative-log Ki (pKi) is 5.35.

The compound `CN(CC#CCN1CCCC1)C(=O)CCCCCCN` had a negative-log Ki (pKi) of 5.51.

For the compound `CN(CC#CCN1CCCC1)C(=O)CCCCCCCN`, the pKi is 6.15.

Compound `CN(CC#CCN1CCCC1)C(=O)CCCCCCCNC(=O)OC(C)(C)C` gave a negative logarithm of the Ki (pKi) of 5.72. Against the preceding compound, the pKi is 0.43 log units lower.
